Assays:
Segments of neo-artery = test: Pharmacologic reactivity of vessel segments in myographs; type: cell-based; details: for constriction response of vessel segment: prostaglandin F2α 10^−5 to 10^−4 M, serotonin 10^−6 to 10^−5 M, endothelin-1 10^−7, resting tension four grams
Protocol: Segments of neo-artery three mm in length were assessed for reactivity to pharmacologic agents using techniques previously reported. Briefly, segments were placed in physiological saline bubbled with 95% O2 and 5% CO2, and mounted on tungsten wires in conventional myographs connected to a pen recorder. Freshly excised segments of rabbit abdominal aorta were used as controls. Vessels were maintained at a resting tension of four grams for 30 minutes prior to testing. Vessels were exposed to indomethacin 10^−5 M, LNNA 10^−4 M, norepinephrine 10^−6 M, prostaglandin F2α10^−5 to 10^−4 M, papavarine 10^−6 to 10^−5 M, serotonin 10^−6 to 10^−5 M, endothelin-1 10^−7 and potassium 30-60 mM. […] In some experiments, the magnitude of the constriction response was augmented by prior exposure to indomethacin.

smooth muscle cell = details: cited from earlier work
aortic endothelial cell = details: cited from earlier work
smooth muscle cells = test: Growth of smooth muscle cells under externally applied physical forces; type: cell-based; details: response to externally applied physical forces such as pulsatile force
Protocol: For use in the methods of the present invention, several variations on standard cell growth media have been developed. […] In addition, for growing any cells which normally produce a substantial collagenous extracellular matrix, an “enhanced cell growth medium” has been developed which comprises standard cell growth medium, as described above, supplemented with 1-10 mM, preferably 5 mM, HEPES buffer; 0.01-0.1 g/L, preferably 0.02-0.06 g/L, Vitamin C; 0.01-0.1 g/L, preferably 0.02-0.06 g/L, proline; 0.01-0.1 g/L, preferably 0.02-0.06 g/L, glycine; 0.01-0.1 g/L, preferably 0.02-0.06 g/L, alanine; and 0.5-5.0 μg/L, preferably 1.0-3.0 μg/L, of a copper salt (e.g., CuSO4). Because Vitamin C has a half-life of only 6-8 hours at 37° C. in culture medium, Vitamin C is preferably replenished daily to enhance collagen synthesis by the cells. In addition, proline, glycine, and alanine are provided in excess to provide adequate amounts of these amino acids for the synthesis of collagen and other extracellular matrix proteins such as elastin. Copper ions are a necessary co-factor for elastin synthesis and, therefore, a source of copper ions (e.g., CuSO4) is preferably included in media used to grow elastin-rich tissues. For the growth of endothelial cells, it is preferred that CS be used rather than FBS. […]

In the case of “endothelin-1 (CSCSSLMDKECVYFCHLDIIW; Endothelin-1; UniProt P05305 53-73, looked up)”, the “constriction response of vessel segment” value (Segments of neo-artery) is reported as “reproducible constriction”.

With NCCc1c[nH]c2ccc(O)cc12 [serotonin] the “constriction response of vessel segment” value (Segments of neo-artery) was “reproducible constriction”.

For aFGF: acidic fibroblast growth factor, the “effect on smooth muscle cell proliferation” value (smooth muscle cell) is given as “stimulate smooth muscle cell proliferation”.

In the case of COc1ccc2c(c1)c(CC(=O)O)c(C)n2C(=O)c1ccc(Cl)cc1 [indomethacin], the “effect of prior exposure on magnitude of the constriction response” value (Segments of neo-artery; indomethacin 10^−5 M, in some experiments) is reported as “augmented”.

In the case of bFGF: basic fibroblast growth factor, the “effect on smooth muscle cell proliferation” value (smooth muscle cell) is given as “stimulate smooth muscle cell proliferation” and the “effect on aortic endothelial cell growth” value (aortic endothelial cell) is given as “stimulate aortic endothelial cell growth”.

With [H]/N=C(/N)N[C@H]1[C@H](O)[C@@H](O)[C@H](O[C@@H]2O[C@@H](C)[C@](O)(C=O)[C@H]2O[C@@H]2O[C@@H](CO)[C@H](O)[C@@H](O)[C@@H]2NC)[C@@H](N/C(N)=N\[H])[C@@H]1O [streptomycin] the “effect on development of the desired smooth muscle phenotype” value (smooth muscle cells) was “tends to inhibit the development of the desired phenotype”.

For COc1ccc(Cc2nccc3cc(OC)c(OC)cc23)cc1OC [papavarine], the “relaxation response of vessel segment” value (Segments of neo-artery; papavarine 10^−6 to 10^−5 M) was “relaxation”.

In the case of VEGF, the “effect on aortic endothelial cell growth” value (aortic endothelial cell) is listed as “stimulate aortic endothelial cell growth”.

For PDGF, the “effect on smooth muscle cell proliferation” value (smooth muscle cell) is listed as “stimulate smooth muscle cell proliferation”.

For prostaglandin F2α, the “constriction response of vessel segment” value (Segments of neo-artery) was “reproducible constriction”.

Reference: patent US6537567B1, “Tissue-engineered tubular construct having circumferentially oriented smooth muscle cells” (Massachusetts Institute of Technology, priority 1997, dated 2003)
